Measured values reported in PubChem BioAssay (NCI).
Values joined by “and” are separate entries in the source; they are usually repeats but may differ in a detail not shown here. Equal values may be shown once.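 Values below derive from 48-hour exposures of cells grown in 96-well plates, with endpoints linearly interpolated between the two concentrations bracketing the appropriate inhibition level. Abbreviation: GI50, concentration required for 50% inhibition of growth. TGI denotes the concentration required for complete inhibition of growth.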

Key:
Experiment in all cases: growth of human tumour cells (NCI), 48 h
MALME-3M melanoma = test system: MALME-3M melanoma
OVCAR-3 ovarian = test system: OVCAR-3 ovarian
HOP-62 NSCLC = test system: HOP-62 NSCLC
TK-10 renal = test system: TK-10 renal
ACHN renal = test system: ACHN renal
HCT-116 colon = test system: HCT-116 colon
SNB-19 CNS = test system: SNB-19 CNS
BT-549 breast = test system: BT-549 breast
MDA-MB-231 breast = test system: MDA-MB-231 breast
NCI/ADR-RES ovarian = test system: NCI/ADR-RES ovarian

| Compound | GI50 (MALME-3M melanoma) | TGI (MALME-3M melanoma) | GI50 (OVCAR-3 ovarian) | TGI (OVCAR-3 ovarian) | GI50 (HOP-62 NSCLC) | TGI (HOP-62 NSCLC) | GI50 (TK-10 renal) | TGI (TK-10 renal) | GI50 (ACHN renal) | TGI (ACHN renal) | GI50 (HCT-116 colon) | TGI (HCT-116 colon) | GI50 (SNB-19 CNS) | TGI (SNB-19 CNS) | GI50 (BT-549 breast) | TGI (BT-549 breast) | GI50 (MDA-MB-231 breast) | TGI (MDA-MB-231 breast) | GI50 (NCI/ADR-RES ovarian) | TGI (NCI/ADR-RES ovarian) |
| --- | --- | --- | --- | --- | --- | --- | --- | --- | --- | --- | --- | --- | --- | --- | --- | --- | --- | --- | --- | --- |
| COc1cc(/C=C/C(=O)NC[C@]2(O)CCC3C4CCc5cc(O)ccc5C4CCC32C)ccc1O (some centres not stated) | 3.5 µM | 42.3 µM | 10.3 µM | > 100 µM | 26.7 µM | > 100 µM | 2.76 µM | 14.4 µM | 9.05 µM | > 100 µM | 7.97 µM | 49.3 µM | 49 µM | > 100 µM | 5.54 µM | 52.1 µM | 18 µM | > 100 µM | 9.89 µM | 54.3 µM |
| Cc1cc(S(N)(=O)=O)c(S/C(=N\Nc2ccc([N+](=O)[O-])cc2)c2ccc(O)cc2)cc1Cl | 1.73 µM | 4.37 µM | 2.06 µM | 4.04 µM | 5.02 µM | 16.8 µM | 2.01 µM | 5.16 µM | 3.09 µM | 12.9 µM | 2.89 µM | 10.6 µM | 4.46 µM | 16.1 µM | 7.68 µM | 22.7 µM | 1.78 µM | 4.67 µM | 2.64 µM | 8.57 µM |
| COc1cccc2c1C(=O)c1c(O)c3c(c(O)c1C2=O)C[C@@](O)(C(=O)CO)C[C@@H]3OC1CC(OC(C)=O)C(OC(C)=O)C(C)O1 (some centres not stated) | 0.502 µM | 2.19 µM | 0.965 µM | 4.57 µM | 0.314 µM | 2.27 µM | 0.985 µM | 6.43 µM | 0.152 µM | 1.44 µM | 0.279 µM | 1.89 µM | 0.496 µM | > 100 µM | 0.386 µM | 4.29 µM | 2.89 µM | 15.6 µM | 0.552 µM |  |
| S=c1nc[nH]c2nc[nH]c12 | 5.28 µM | > 100 µM and 298 µM and > 750 µM | 0.762 µM and 3.66 µM | > 100 µM and 537 µM and > 750 µM | 2.09 µM and 8 µM | > 100 µM and 526 µM and > 750 µM | 58 µM and 10.2 µM | > 100 µM and 549 µM and 332 µM | 4.88 µM | > 737 µM | 5.4 µM | > 100 µM and 710 µM and > 750 µM | 65.9 µM and 213 µM | > 750 µM |  | > 750 µM |  | > 100 µM and 694 µM and > 750 µM |  | > 735 µM |
| CN(C)CCN1C(=O)c2cccc3c(N)ccc(c23)C1=O | 7.74 µM | > 25 µM | 15.9 µM | > 25 µM | 22.9 µM | > 25 µM | 9.15 µM | > 25 µM | 7.9 µM | > 25 µM | 9.49 µM | > 25 µM | 14.3 µM | > 25 µM | > 25 µM | > 25 µM | 16 µM | > 25 µM | 16.9 µM | > 25 µM |
| O=C(Nc1ccc(Cl)cc1F)c1cc(F)ccc1O | 0.41 µM | 2.27 µM | 0.528 µM | 10.8 µM | 1.5 µM | 19.8 µM | 4.69 µM | 23.1 µM | 0.83 µM | 8.27 µM | 0.702 µM | 3.51 µM | 0.669 µM | 18.6 µM | 0.83 µM | 4.02 µM | 0.761 µM | 3.81 µM | 1.63 µM | 7.1 µM |
| CN(C)c1ccc(/C=C/c2ccnc3ccc4ccccc4c23)cc1 |  | 58.5 µM |  | > 100 µM |  | > 100 µM |  | 49.9 µM |  | 57.3 µM |  | > 100 µM |  | > 100 µM |  | > 100 µM |  | > 100 µM |  | > 100 µM |
| O=C1c2ccc3c4c(ccc(c24)C(=O)N1CCCNCc1ccccc1)C(=O)N(CCCNCc1ccccc1)C3=O | 0.152 µM | 0.298 µM | 0.13 µM | 0.476 µM | 0.232 µM | 0.772 µM | 0.119 µM | 0.413 µM | 0.135 µM | 0.722 µM | 0.0801 µM | 0.39 µM | 0.13 µM | 0.314 µM | 0.451 µM | 0.889 µM | 0.238 µM | 0.917 µM | 0.236 µM | 0.779 µM |
| COc1nc2c(cc1S(=O)(=O)c1ccccc1)CCc1c-2cnn1Cc1ccccc1 | 24.4 µM | > 100 µM | 9.35 µM | > 100 µM | 17.7 µM | > 100 µM | > 100 µM | > 100 µM | 42.6 µM | > 100 µM | 3.8 µM | > 100 µM | > 100 µM | > 100 µM | 8.07 µM | > 100 µM | > 100 µM | > 100 µM | 9.84 µM | > 100 µM |
| Cc1cc(C(=O)N[C@@H](CCC(=O)O)C(=O)O)sc1CC[C@@H]1CNc2nc(N)[nH]c(=O)c2C1 | 0.0398 µM | > 100 µM | 0.048 µM | > 100 µM | 0.0496 µM | > 100 µM | < 0.0154 µM | > 100 µM | < 0.01 µM | > 100 µM | < 0.0127 µM | > 100 µM | 0.0853 µM | > 100 µM | 0.0883 µM | > 100 µM | 5.56 µM | > 100 µM | 0.0481 µM | > 100 µM |
| CN(C)CCNC(=O)c1cccc2cc([N+](=O)[O-])ccc12 | 1.33 µM and 0.179 µM | 2.75 µM and 0.621 µM | 2.36 µM and 0.332 µM | 11.7 µM and 2.26 µM | 1.19 µM and 0.224 µM | 4.13 µM and 1.23 µM | 0.816 µM and 0.155 µM | 4.74 µM and 0.591 µM | 0.384 µM and 0.127 µM | 2.94 µM and 0.604 µM | 0.513 µM and 0.0724 µM |  | 2.55 µM and 0.342 µM | 16.1 µM and 2.38 µM |  | 13.8 µM |  | 6.21 µM |  | 5.27 µM |
| Cc1cc(O)c(C2=NN(c3ccc(S(N)(=O)=O)cc3)C(c3ccccc3O)C2)cc1Cl (configuration not stated) | 2.2 µM | 6.7 µM | 2.61 µM | 7.62 µM | 1.75 µM | 3.68 µM | 3.03 µM | 7.32 µM | 2.58 µM | 8.55 µM | 1.57 µM | 2.91 µM | 3.5 µM | 11.4 µM | 2.08 µM | 6.11 µM | 1.91 µM | 5.11 µM | 2.82 µM | 8.84 µM |
| Cc1c2cnccc2c(C)c2c1c1cc(C(=O)O)ccc1n2C | 0.942 µM | 2.97 µM | 1.35 µM | 5.68 µM | 0.642 µM | 7.52 µM | 1.79 µM | 8.96 µM | 0.464 µM | 5.27 µM | 0.373 µM | > 100 µM | 0.738 µM | 10.3 µM | 1.47 µM | 4.82 µM | 1.51 µM | 5.81 µM | 0.764 µM | 5.5 µM |
